Experimental data as given in US9085536B2, “Aconitine compounds, compositions, uses, and preparation thereof” (priority 2011, dated 2015).
“Also recorded” adds a separate entry of the source. Read-outs that look alike come from different tables or passages of the source.

Legend:
[1] = target: T1, rNaV1.4 expressed in CHO cells (Rattus norvegicus, UniProt P15390); assay: Na+ current block at steady state, whole-cell patch clamp with pulse trains; format: cell-based; settings: for Current measured at 20 μM (%) / Current measured at 75 μM (%): before wash-off; for depolarizing pulses required to reach steady-state block: 10 Hz pulse trains
T1 construct: expressed in transfected cells; host or cells: CHO cells
Experimental: Binding of aconitine to NaV is use-dependent and is known to result both in a left shift of the current-voltage (I-V) relationship and in partial block of the channel. […] To determine whether aconitine binding is reversible, two experiments were designed. First, as block by aconitine is known to be use dependent, peak current was measured as a function of pulse number in the presence of two different concentrations of aconitine. Since aconitine binds preferentially to the open state of the sodium channel, a pulse train was applied sequentially with a control pulse used to record peak current. The pulse train consisted of a series of 50 depolarizing pulses (from −100 mV holding potential to 0 mV, 10 ms duration) applied at 10 Hz frequency, while the control pulse consisted of a single depolarizing pulse (from −100 mV holding potential to 0 mV test potential, 10 ms duration).
Pulse trains of 10 Hz frequency and control pulses were applied sequentially to cells expressing rNaV1.4, and currents elicited from the control pulse were recorded after each pulse train. This process was repeated until the current elicited from the control pulse had reached a steady state and was no longer decreasing with each additional pulse train. If block were irreversible, this steady state current would be expected to be independent of toxin concentration—the toxin would not be able to dissociate from its receptor, and the number of toxin molecules is much greater than the number of sodium channels (assuming a 100 μL chamber containing 1000 CHO cells, each expressing 10,000 sodium channels, at 50 μM concentration toxin molecules outnumber receptors by a factor of 3×10^8:1), therefore, all receptors would eventually reach the bound state.
Block by aconitine is known to be use-dependent, therefore the use-dependence of the C14 derivatives of aconitine was evaluated. Peak Na current was measured as a function of pulse number in the presence of different concentrations of the molecules. […] Since aconitine binds preferentially to the open state of the sodium channel, a pulse train was applied sequentially with a control pulse used to record peak current. The pulse train consisted of a series of 50 depolarizing pulses (from −100 mV holding potential to 0 mV, 10 ms duration) applied at 10 Hz frequency, while the control pulse consisted of a single depolarizing pulse (from −100 mV holding potential to 0 mV test potential, 10 ms duration).
Pulse trains of 10 Hz frequency and control pulses were applied sequentially to CHO cells expressing rNaV1.4, and currents elicited from the control pulse were recorded after each pulse train. This process was repeated until the current elicited from the control pulse had reached a steady state and was no longer decreasing with each additional pulse train. If block were irreversible, this steady state current would be expected to be independent of toxin concentration—the toxin would not be able to dissociate from its receptor, and the number of toxin molecules is much greater than the number of sodium channels, therefore, all receptors would eventually reach the bound state.
The ability of the synthesized aconitine derivatives to block NaV channels was evaluated with patch-clamp experiments in the whole-cell configuration on CHO cells expressing rNaV1.4 heterologously. A buffer solution containing the toxin was applied to the cells, whole-cell Na^+ currents were recorded until the decreasing current reached a steady-state (300 to 3000 pulses, depending on the molecules and concentrations). The peak Na^+ currents were measured with a depolarizing test pulse (from −100 mV holding potential to 0 mV test potential, 10 ms duration).

[2] = target: T1, rNaV1.4 expressed in CHO cells; format: cell-based; settings: for reversibility of binding upon wash-off: wash-off experiments, Table 3 concentrations
Experimental: […] […] It is noteworthy that little or no increase in current was observed during wash off when no depolarizing pulses were applied and peak current was measured as a function of time.
Since the molecules bind to the open-state of the Nav channel their release also requires activation pulses. In typical experiments, buffered external solution was perfused and a pulse train sequence was applied to the patch-clamp until the current reached a steady-state for at least two minutes.

[3] = target: T1, rNaV1.4 expressed in CHO cells; assay: Activation: current-voltage (I-V) and conductance-voltage (G-V) relationship, whole-cell recording; format: cell-based
Experimental: To determine if the shift in I-V relationship is affected by the aromaticity of the aconitine C14 benzoate, current-voltage relationships were recorded for control cells expressing NaV, those that had been modified by aconitine, and those that had been modified by aconitine C14-cyclohexanoate 4.8d. For the modified channels, solutions of 50 μM concentration of the respective toxins were perfused onto the cells, and then depolarizing pulses were applied until a steady state current was observed, generally requiring about 1000 pulses. At that time, current-voltage relationships were again recorded. […] A shift towards hyperpolarizing potentials is clearly observed in both cases. Currents recorded at −50 mV are highlighted for all three experiments.
To determine the effect on current-voltage (I-V) relationship of the aconitine derivatives, whole cell currents were recorded in cells expressing NaV in the presence of aconitine derivatives. Control I-V plots were recorded with unmodified NaV1.4, to which were compared NaV channels modified by aconitine as well as by selected analogs. For the modified channels, solutions of the respective toxins were perfused onto the cells, and then depolarizing pulses were applied until a steady state current was observed, generally requiring about 1000 pulses. A sequence of test pulses was then recorded to determine the current-voltage relationships (using a step protocol in which CHO cells were depolarized for 10 ms from a holding potential of −100 mV to a range of potentials from −95 mV to +30 mV in 5 or 10 mV increments; peak currents were normalized to the maximum peak current and plotted against voltage).

[4] = target: T1, rNaV1.4 expressed in CHO cells; assay: Steady-state inactivation, whole-cell recording, Boltzmann fit; format: cell-based
Experimental: . The channels were modified by perfusing the cells with buffered solution containing aconitine at the given concentrations and then simple pulses (10 ms pulses to 0 mV from −100 mV holding potential) were recorded until the currents leveled to a steady value (typically ˜1000 pulses). Steady-state fast inactivation of the current was then determined by delivering 500 ms conditioning pulses to potentials ranging from −130 to −11 mV (7 my increments) immediately followed by a 10 ms test pulse to 0 mV to test the available current. The peak current measured during the test pulse was normalized to the maximum peak current recorded in the conditioning pulses. […] Midpoint voltage V0.5 represents the membrane potential at which half maximum current is observed; slope factor at midpoint k quantifies the rate at which the inactivation response occurs.

NaV1.8 = NaV1.8 (Homo sapiens, UniProt Q9Y5Y9); settings: cited from earlier work
NaV1.2 = NaV1.2 (Homo sapiens, UniProt Q99250); settings: cited from earlier work

T1 sequence (P15390 whole entry): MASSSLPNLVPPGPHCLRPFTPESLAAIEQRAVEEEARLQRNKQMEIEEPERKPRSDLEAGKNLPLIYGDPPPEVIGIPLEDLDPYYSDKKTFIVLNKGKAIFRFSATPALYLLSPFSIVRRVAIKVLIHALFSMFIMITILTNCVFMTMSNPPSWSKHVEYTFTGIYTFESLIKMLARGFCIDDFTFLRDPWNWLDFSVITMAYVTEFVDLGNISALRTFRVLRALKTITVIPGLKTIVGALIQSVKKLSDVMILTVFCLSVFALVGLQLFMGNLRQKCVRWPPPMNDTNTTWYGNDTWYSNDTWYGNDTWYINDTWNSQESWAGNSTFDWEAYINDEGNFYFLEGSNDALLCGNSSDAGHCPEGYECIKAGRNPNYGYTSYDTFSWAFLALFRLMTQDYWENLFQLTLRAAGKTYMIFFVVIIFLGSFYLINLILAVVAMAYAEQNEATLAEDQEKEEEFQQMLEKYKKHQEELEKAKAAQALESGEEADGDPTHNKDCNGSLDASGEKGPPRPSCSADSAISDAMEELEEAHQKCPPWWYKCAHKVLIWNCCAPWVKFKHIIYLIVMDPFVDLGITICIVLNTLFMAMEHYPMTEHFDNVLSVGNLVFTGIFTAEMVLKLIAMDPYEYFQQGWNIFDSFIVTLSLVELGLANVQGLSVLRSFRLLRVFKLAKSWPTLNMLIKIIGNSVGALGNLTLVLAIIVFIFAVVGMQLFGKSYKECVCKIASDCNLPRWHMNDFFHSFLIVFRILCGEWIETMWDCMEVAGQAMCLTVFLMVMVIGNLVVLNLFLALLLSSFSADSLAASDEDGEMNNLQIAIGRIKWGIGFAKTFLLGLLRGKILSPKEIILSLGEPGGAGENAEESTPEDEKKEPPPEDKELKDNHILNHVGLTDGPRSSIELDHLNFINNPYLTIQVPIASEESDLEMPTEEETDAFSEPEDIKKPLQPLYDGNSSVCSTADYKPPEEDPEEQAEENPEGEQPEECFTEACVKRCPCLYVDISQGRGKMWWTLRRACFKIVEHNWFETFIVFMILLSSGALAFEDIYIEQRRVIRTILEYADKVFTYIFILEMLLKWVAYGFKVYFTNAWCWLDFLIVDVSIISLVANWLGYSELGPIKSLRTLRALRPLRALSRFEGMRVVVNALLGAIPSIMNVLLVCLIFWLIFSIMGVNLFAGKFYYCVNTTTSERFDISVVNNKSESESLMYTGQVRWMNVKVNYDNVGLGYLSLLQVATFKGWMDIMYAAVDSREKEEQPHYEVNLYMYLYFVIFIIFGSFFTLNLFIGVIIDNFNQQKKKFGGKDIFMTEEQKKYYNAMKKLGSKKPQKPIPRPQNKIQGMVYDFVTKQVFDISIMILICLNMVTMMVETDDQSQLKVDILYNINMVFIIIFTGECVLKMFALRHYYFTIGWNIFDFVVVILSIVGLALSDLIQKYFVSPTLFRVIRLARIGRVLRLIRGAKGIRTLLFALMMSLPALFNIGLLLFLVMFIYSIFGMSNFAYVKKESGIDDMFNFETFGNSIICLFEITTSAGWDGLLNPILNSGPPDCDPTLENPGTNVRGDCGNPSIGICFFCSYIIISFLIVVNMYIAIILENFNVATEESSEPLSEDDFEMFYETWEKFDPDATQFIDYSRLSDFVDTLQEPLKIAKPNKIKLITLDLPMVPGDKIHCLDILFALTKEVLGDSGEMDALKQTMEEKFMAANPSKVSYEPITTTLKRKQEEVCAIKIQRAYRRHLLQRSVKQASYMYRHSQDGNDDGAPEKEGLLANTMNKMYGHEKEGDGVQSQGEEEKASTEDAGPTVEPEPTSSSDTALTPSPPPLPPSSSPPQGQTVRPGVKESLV
Chain of NaV1.8 (Q9Y5Y9 whole entry, looked up): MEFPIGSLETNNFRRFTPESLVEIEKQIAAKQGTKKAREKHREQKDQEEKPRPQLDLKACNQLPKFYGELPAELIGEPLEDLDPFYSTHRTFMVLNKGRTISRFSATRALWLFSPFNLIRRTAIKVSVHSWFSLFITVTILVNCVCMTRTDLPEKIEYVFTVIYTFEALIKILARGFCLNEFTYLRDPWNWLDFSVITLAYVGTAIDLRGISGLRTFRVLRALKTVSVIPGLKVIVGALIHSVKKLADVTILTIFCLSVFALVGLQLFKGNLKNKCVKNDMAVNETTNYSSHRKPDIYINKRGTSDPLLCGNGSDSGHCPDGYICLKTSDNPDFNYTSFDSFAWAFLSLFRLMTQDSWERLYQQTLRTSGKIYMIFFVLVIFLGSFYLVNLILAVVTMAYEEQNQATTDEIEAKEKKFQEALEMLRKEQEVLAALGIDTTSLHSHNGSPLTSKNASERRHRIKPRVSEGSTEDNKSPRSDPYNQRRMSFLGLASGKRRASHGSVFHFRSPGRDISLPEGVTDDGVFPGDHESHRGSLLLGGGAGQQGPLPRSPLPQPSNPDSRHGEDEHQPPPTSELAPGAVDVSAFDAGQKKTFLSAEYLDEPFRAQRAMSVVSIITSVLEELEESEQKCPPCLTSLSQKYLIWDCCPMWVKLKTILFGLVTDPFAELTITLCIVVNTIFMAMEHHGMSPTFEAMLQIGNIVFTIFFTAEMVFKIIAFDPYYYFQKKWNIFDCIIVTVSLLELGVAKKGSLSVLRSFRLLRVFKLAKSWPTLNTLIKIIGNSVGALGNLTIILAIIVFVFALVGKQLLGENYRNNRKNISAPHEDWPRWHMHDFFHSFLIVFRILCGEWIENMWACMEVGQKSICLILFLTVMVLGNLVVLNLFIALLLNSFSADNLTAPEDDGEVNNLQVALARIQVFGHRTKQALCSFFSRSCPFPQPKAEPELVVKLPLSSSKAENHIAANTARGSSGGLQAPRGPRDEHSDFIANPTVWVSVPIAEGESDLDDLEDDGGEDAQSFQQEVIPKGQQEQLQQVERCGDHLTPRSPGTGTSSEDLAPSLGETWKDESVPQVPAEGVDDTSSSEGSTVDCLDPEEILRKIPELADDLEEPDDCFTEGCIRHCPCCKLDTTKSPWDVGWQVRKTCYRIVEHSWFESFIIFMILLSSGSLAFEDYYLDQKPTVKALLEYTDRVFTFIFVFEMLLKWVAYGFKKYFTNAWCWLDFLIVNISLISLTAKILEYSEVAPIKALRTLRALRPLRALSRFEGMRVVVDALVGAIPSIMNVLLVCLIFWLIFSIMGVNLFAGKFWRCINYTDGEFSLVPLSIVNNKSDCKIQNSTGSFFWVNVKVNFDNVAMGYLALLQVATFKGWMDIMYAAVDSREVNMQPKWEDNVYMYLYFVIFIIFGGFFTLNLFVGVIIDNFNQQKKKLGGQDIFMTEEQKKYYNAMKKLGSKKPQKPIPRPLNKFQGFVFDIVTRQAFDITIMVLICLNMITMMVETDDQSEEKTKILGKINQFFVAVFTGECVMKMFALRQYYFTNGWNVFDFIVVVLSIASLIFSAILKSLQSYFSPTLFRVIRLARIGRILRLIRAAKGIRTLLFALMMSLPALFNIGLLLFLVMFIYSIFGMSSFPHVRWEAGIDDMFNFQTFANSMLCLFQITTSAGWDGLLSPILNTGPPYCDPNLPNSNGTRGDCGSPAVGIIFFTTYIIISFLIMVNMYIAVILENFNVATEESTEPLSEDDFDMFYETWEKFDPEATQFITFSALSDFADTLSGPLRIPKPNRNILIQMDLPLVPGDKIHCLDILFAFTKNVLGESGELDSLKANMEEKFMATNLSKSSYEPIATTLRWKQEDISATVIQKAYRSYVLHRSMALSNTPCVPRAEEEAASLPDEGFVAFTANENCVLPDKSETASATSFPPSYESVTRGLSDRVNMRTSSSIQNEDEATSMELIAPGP

CCN1CC2(COC)C3C(OC)C4C1C3(C1C[C@@]3(O)[C@H](OC(=O)c5ccc6ccccc6c5)[C@@H]1[C@]4(OC(C)=O)[C@@H](O)[C@@H]3OC)[C@@H](OC)C[C@H]2O (stereo partly drawn) [4.8c]
% Remaining current after reaching steady-state binding ([1]; 5 μM): 38% | % Remaining current after reaching steady-state binding ([1]; 20 μM): 5% | peak current blocked at steady state ([1]; 20 μM): around 95% | Current measured at 20 μM (%) ([1]; 20 μM): 3% | depolarizing pulses required to reach steady-state block ([1]; 20 μM): 800 pulses | peak current blocked at steady state ([1]; 73 μM): over 97% | Current measured at 75 μM (%) ([1]; 73 μM (footnote b)): 3^b % | % Remaining current after reaching steady-state binding ([1]; 73 μM (footnote c, 75 μM column)): 3^c % | depolarizing pulses required to reach steady-state block ([1]; 73 μM): ≤ 300 pulses | % Remaining current after reaching steady-state binding ([1]; 200 μM): 3% | current observed at steady state ([1]; concentrations of 20 μM and above): ≤ 5% | Current after wash-off (%) ([2]; after wash-off of 20 μM): 4% | Current after wash-off (%) ([2]; after wash-off of 73 μM (footnote b)): 3^b % | reversibility of binding upon wash-off [2]: did not restore substantial current; also recorded: completely irreversible | Activation V0.5 (mV) ([3]; 5 μM): −23.1 mV | Activation hg ([3]; 5 μM): 13.1

CCN1CC2(COC)C3C(OC)C4C1C3(C1C[C@@]3(O)[C@H](OC(=O)C5CCCCC5)[C@@H]1[C@]4(OC(C)=O)[C@@H](O)[C@@H]3OC)[C@@H](OC)C[C@H]2O (stereo partly drawn) [4.8d]
% Remaining current after reaching steady-state binding ([1]; 5 μM): 82% | peak current blocked at steady state ([1]; 20 μM): 85% | depolarizing pulses required to reach steady-state block ([1]; 20 μM): around 600 pulses | Current measured at 20 μM (%) ([1]; 21 μM (footnote c)): 15^c % | % Remaining current after reaching steady-state binding ([1]; 50 μM): 10% | peak current blocked at steady state ([1]; 50 μM): 90% | depolarizing pulses required to reach steady-state block ([1]; 50 μM): Approximately 1000 pulses | % Remaining current after reaching steady-state binding ([1]; 200 μM): 6% | peak current blocked at steady state ([1]; 200 μM): 94% | depolarizing pulses required to reach steady-state block ([1]; 200 μM): 200 pulses | Current after wash-off (%) ([2]; after wash-off of 20 μM): 79% | Current after wash-off (%) ([2]; after wash-off of 21 μM (footnote c)): 79^c % | shift of voltage of half-activation (V0.5) towards the hypo-polarization [3]: more than 20 mV | effect on activation threshold ([3]; 20 μM): did not significantly shift the activation threshold | hypopolarized shift of potential of maximum current ([3]; 20 μM): 10 mV | membrane potential at which maximum current is observed ([3]; 20 μM): 0 mV | Activation V0.5 (mV) ([3]; 21 μM): 1.3 mV | Activation hg ([3]; 21 μM): 15.4 | current at −50 mV ([3]; 50 μM, after about 1000 pulses, no current in control cells): substantial currents; also recorded: more pronounced effect in this respect than the natural product | effect on threshold for inactivation ([4]; 20 μM): shifted the threshold for inactivation towards higher potentials | Steady-state inactivation V0.5 (mV) ([4]; 21 μM): −53.1 mV | Steady-state inactivation k (slope factor at midpoint) ([4]; 21 μM): 8.1 | slope factor k of steady-state inactivation ([4]; concentration not given, unmodified ˜6): ~8

CCN1CC2(COC)C3C(OC)C4C1C3(C1C[C@@]3(O)[C@H](OC(=O)c5ccccc5N=[N+]=[N-])[C@@H]1[C@]4(OC(C)=O)[C@@H](O)[C@@H]3OC)[C@@H](OC)C[C@H]2O (stereo partly drawn) [4.8f]
% Remaining current after reaching steady-state binding ([1]; 50 μM): 22%

CCN1CC2(COC)C3[C@H](OC)C4C1C3(C1C[C@@]3(O)[C@H](OC(=O)c5cc6ccccc6oc5=O)C1[C@]4(OC(C)=O)[C@@H](O)[C@@H]3OC)[C@@H](OC)C[C@H]2O (stereo partly drawn) [4.8g]
concentration required to achieve the current levels observed with 20 μM aconitine [1]: 75 µM | % Remaining current after reaching steady-state binding ([1]; 20 μM): 79% | peak current blocked at steady state ([1]; 20 μM): 21% | Current measured at 20 μM (%) ([1]; 20 μM): 79% | depolarizing pulses required to reach steady-state block ([1]; 20 μM): over 2500 pulses | % Remaining current after reaching steady-state binding ([1]; 75 μM): 23% | peak current blocked at steady state ([1]; 75 μM): 77% | Current measured at 75 μM (%) ([1]; 75 μM): 23% | depolarizing pulses required to reach steady-state block ([1]; 75 μM): over 3000 pulses | Current after wash-off (%) ([2]; after wash-off of 20 μM): 83% | Current after wash-off (%) ([2]; after wash-off of 75 μM): 31% | reversibility of binding upon wash-off [2]: did not restore substantial current | Activation V0.5 (mV) ([3]; 75 μM): −36 mV | Activation hg ([3]; 75 μM): 8.9 | Steady-state inactivation V0.5 (mV) ([4]; 75 μM): −75.6 mV | Steady-state inactivation k (slope factor at midpoint) ([4]; 75 μM): 11.6 | steady-state inactivation V0.5 ([4]; concentration not given): −76 mV | shift of steady-state inactivation V0.5 compared to the unmodified NaV channel ([4]; toward hyperpolarized potentials, concentration not given): 23 mV

NC1=N[C@H](O)[C@H]2[C@H]3O[C@]4(O)O[C@@H]([C@@H](O)[C@@]2(N1)[C@@H]4O)[C@]3(O)CO [TTX, tetrodotoxin]
TTX potency (NaV1.8): 60 µM | TTX potency (NaV1.2): 0.012 µM
